This is an account of results in patent US8765779B2, “Tricyclic derivatives and their pharmaceutical use and compositions” (Cephalon, Inc., priority 2009, dated 2014).

Each structure is given as a SMILES string. A value given as a limit tells only on which side of the number the result lay.

The experiment has as its target T1, human 5-HT6 receptor (Homo sapiens, UniProt P50406).
T1 construct: host or cells: CHO-K1 cells, stably transfected; membranes prepared in house
Put plainly: Human 5-HT6 Receptor Binding Assay ([3H]LSD displacement, scintillation beads). The note with it: membranes of CHO-K1 cells with recombinant human 5-HT6, 4 nM [3H]LSD; Table 1, class symbols; read-out: h5-HT6 (Ki).

The Ki is a measure of affinity in units of concentration, obtained from inhibition or displacement.

T1 sequence (P50406 whole entry): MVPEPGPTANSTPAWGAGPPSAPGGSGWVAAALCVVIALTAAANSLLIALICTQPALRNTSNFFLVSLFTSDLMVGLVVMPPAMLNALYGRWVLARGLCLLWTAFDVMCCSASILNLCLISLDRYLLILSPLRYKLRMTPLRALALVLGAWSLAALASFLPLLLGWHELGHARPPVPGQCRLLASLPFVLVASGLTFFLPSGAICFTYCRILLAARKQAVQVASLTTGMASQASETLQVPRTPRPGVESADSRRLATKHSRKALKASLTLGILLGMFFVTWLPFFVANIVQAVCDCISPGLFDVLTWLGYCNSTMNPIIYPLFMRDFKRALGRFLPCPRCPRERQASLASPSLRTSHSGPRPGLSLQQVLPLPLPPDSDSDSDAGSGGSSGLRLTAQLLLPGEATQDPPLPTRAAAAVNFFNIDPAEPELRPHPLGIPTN

As for `CC1(C(F)(F)F)NCCc2c1oc1cc(S(=O)(=O)c3cccc(F)c3)ccc21` (racemic) [Example 37, 7-[(3-fluorophenyl)sulfonyl]-1-methyl-1-(trifluoromethyl)-1,2,3,4-tetrahydro[1]benzofuro[2,3-c]pyridine], the Ki is less than 500 nM.
Consider `COc1cccc(S(=O)(=O)c2ccc3c(c2)OC2CNCCC32)c1F` (stereo not shown) [Example 404], for which the Ki is less than 500 nM.
As for `N#Cc1ccc(S(=O)(=O)c2ccc3c4c(oc3c2)CNCC4)cc1` [Example 220], the Ki was less than 500 nM.
As to `O=S(=O)(c1cccc(Cl)c1)c1ccc2c3c(oc2c1)CN(Cc1ccccc1)CC3` [Example 603], the Ki is less than 500 nM.
Consider `O=S(=O)(NCc1ccc(Cl)cc1)c1ccc2c(c1)C1CCNCC1O2` (stereo not shown) [Example 854], for which the Ki was greater than 1000 nM.
As for `O=S(=O)(c1ccc2c(c1)OC1CNCCC21)c1ccccc1F` (stereo not shown) [Example 146], the figure is less than 500 nM; as for `O=S(=O)(c1ccccc1)c1ccc2c3c(oc2c1)CN(CCc1ccccc1)CC3` [Example 596], less than 500 nM.
The result for `O=S(=O)(Nc1ccc2c(c1)C1CCNCC1O2)c1cccc2ccccc12` (stereo not shown) [Example 825] reads less than 500 nM; that for `CC(C)Oc1cccc(S(=O)(=O)c2ccc3c4c(oc3c2)C2(CCCOC2)NCC4)c1` (racemic) [Example 23, 7-{[3-(propan-2-yloxy)phenyl]sulfonyl}-3,4,5′,6′-tetrahydro-2H,4′H-spiro[1-benzofuro[2,3-c]pyridine-1,3′-pyran]], less than 500 nM; that for `COCC1(C)NCCc2c1oc1cc(S(=O)(=O)c3cccc(F)c3)ccc21` (stereo not shown) [Example 634], less than 500 nM.
As for `CC1NCCc2c1oc1ccc(S(=O)(=O)c3cccc(C(F)(F)F)c3)cc21` (stereo not shown) [Example 282], the figure is less than 500 nM; as for `O=S(=O)(NCCc1ccccc1)c1ccc2c(c1)C1CCNCC1O2` (stereo not shown) [Example 855], greater than 1000 nM; as for `CC(C)Oc1ccccc1S(=O)(=O)c1ccc2c(c1)OC1CNCCC21` (stereo not shown) [Example 406], less than 500 nM.
In the case of `CC12CCNCC1Oc1cc(S(=O)(=O)c3cccc4c3OC(F)(F)O4)ccc12` (stereo not shown) [Example 460], the Ki was less than 500 nM.
The result for `O=S(=O)(c1ccc(F)cc1)c1ccc2c(c1)OC1CNCCC21` (stereo not shown) [Example 134] reads less than 500 nM; that for `O=S(=O)(Oc1ccc2c(c1)C1CCNCC1O2)c1cccc2cnccc12` (stereo not shown) [Example 745], greater than 1000 nM; that for `O=S(=O)(c1ccccc1-c1ccccc1)c1cccc2c1OC1CNCCC21` (stereo not shown) [Example 191], less than 500 nM.
In the case of `CC(C)Oc1cccc([S+]([O-])c2ccc3c4c(oc3c2)CNCC4)c1` (stereo not shown) [Example 216], the Ki is less than 500 nM.
The result for `O=S(=O)(c1cccc(Cl)c1)c1ccc2c3c(oc2c1)C(CC(F)(F)F)NCC3` (stereo not shown) [Example 504] reads less than 500 nM; that for `O=S(=O)(c1ccccc1Cl)c1cccc2c1OC1CNCCC21` (stereo not shown) [Example 183], less than 500 nM; that for `O=S(=O)(c1cccc(Cl)c1)c1ccc2c3c(oc2c1)C1(CCOC1)NCC3` (stereo not shown) [Example 306], less than 500 nM.
As for `CCCCC1NCCc2c1oc1cc(S(=O)(=O)c3cccc(F)c3)ccc21` (stereo not shown) [Example 506], the figure is less than 500 nM.
With `CN(c1ccc2c(c1)OC1CNCCC21)S(=O)(=O)c1c(Cl)nc2sccn12` (stereo not shown) [Example 835, 6-Chloro-N-[1,2,3,4,4a,9a-hexahydro[1]benzofuro[2,3-c]pyridin-7-yl]-N-methylimidazo[2,1-b][1,3]thiazole-5-sulfonamide], the inhibition constant Ki is less than 500 nM.
As for `Cc1nc(COc2cccc(S(=O)(=O)c3ccc4c(c3)OC3CNCCC43)c2)cs1` (stereo not shown) [Example 569], the Ki was less than 500 nM.
With `O=S(=O)(c1cccc(F)c1)c1ccc2oc3c(c2c1)CCNC3CCBr` (stereo not shown) [Example 514], the Ki was less than 500 nM.
As for `O=S(=O)(c1ccc2c(c1)OCCO2)c1ccc2oc3c(c2c1)CCNC3` [Example 247], the figure is less than 500 nM; as for `O=S(=O)(Oc1ccc2c(c1)C1CCNCC1O2)c1c(Cl)nc2sccn12` (stereo not shown) [Example 698], less than 500 nM.
As for `O=S(=O)(c1cc(F)cc(OCC(F)(F)F)c1)c1ccc2c(c1)OC1CNCCC21` (stereo not shown) [Example 403], the figure is less than 500 nM; as for `CC12CCNCC1Oc1cc(S(=O)(=O)c3cccc(F)c3F)ccc12` (stereo not shown) [Example 488], less than 500 nM; as for `COc1c(F)cc(F)cc1S(=O)(=O)c1ccc2c(c1)OC1CNCCC21` (stereo not shown) [Example 458], greater than 1000 nM.
For `[O-][S+](c1ccc2c3c(oc2c1)CNCC3)c1c(F)c(F)cc(F)c1F` (stereo not shown) [Example 224], the Ki was less than 500 nM.
Turning to `O=S(=O)(c1ccc2c3c(oc2c1)CNCC3)C1CCCCC1` [Example 233], the Ki was greater than 1000 nM.
As for `Cc1ccnc(S(=O)(=O)c2ccc3c(c2)OC2CNCCC32C)n1` (racemic) [Example 7, 4a-methyl-7-[(4-methylpyrimidin-2-yl)sulfonyl]-1,2,3,4,4a,9a-hexahydro[1]benzofuro[2,3-c]pyridine], the figure is greater than 1000 nM; as for `Cc1c(S(=O)(=O)Oc2ccc3c(c2)OC2CNCCC32)sc2ccc(Cl)cc12` (stereo not shown) [Example 796], less than 500 nM.
As for `CN1CCC2c3ccc(OS(=O)(=O)c4ccc(Cl)cc4)cc3OC2C1` (stereo not shown) [Example 799], the Ki was in the range of 500 to 1000 nM.
As for `CC(C)Oc1cccc(S(=O)(=O)c2ccc3c(c2)OC2CNCCC32)c1` (stereo not shown) [Example 165], the figure is less than 500 nM; as for `CC(=O)NCC1NCCc2c1oc1cc(S(=O)(=O)c3cccc(F)c3)ccc21` (racemic) [Example 535, N-({7-[(3-fluorophenyl)sulfonyl]-1,2,3,4-tetrahydro[1]benzofuro[2,3-c]pyridin-1-yl}methyl)acetamide], less than 500 nM; as for `CC12CCNCC1Oc1ccc(OS(=O)(=O)c3ccc(-n4cccn4)cc3)cc12` (stereo not shown) [Example 776], greater than 1000 nM.
The result for `CC12CCNCC1Oc1ccc(OS(=O)(=O)c3ccccc3C(F)(F)F)cc12` (stereo not shown) [Example 779] reads greater than 1000 nM; that for `CC1NCCc2c1oc1cc(S(=O)(=O)c3cccc(C(F)(F)F)c3)ccc21` (stereo not shown) [Example 237], less than 500 nM.
In the case of `CC(C)Oc1cccc(S(=O)(=O)c2ccc3c4c(oc3c2)C2(CCOCC2)NCC4)c1` [Example 44, 7-{[3-(propan-2-yloxy)phenyl]sulfonyl}-2′,3,3′,4,5′,6′-hexahydro-2H-spiro[1-benzofuro[2,3-c]pyridine-1,4′-pyran]], the inhibition constant Ki was less than 500 nM.
On to `COc1c(F)cc(F)cc1S(=O)(=O)c1ccc2c3c(oc2c1)C(C)(C)NCC3` [Example 470], for which the Ki was less than 500 nM.
In the case of `CC1(C)NCCc2c1oc1cc(S(=O)(=O)c3cncc(Cl)c3)ccc21` [Example 376], the Ki was less than 500 nM.
The result for `COc1cccc(NS(=O)(=O)c2ccc3c(c2)C2CCNCC2O3)c1` (stereo not shown) [Example 850] reads greater than 1000 nM.
For `O=S(=O)(c1cccnc1)c1ccc2c3c(oc2c1)CNCC3` [Example 438], the Ki is less than 500 nM.
As for `Cc1c(OCC2CCOCC2)cccc1S(=O)(=O)c1ccc2c(c1)OC1CNCCC21` (stereo not shown) [Example 582], the figure is less than 500 nM; as for `O=S(=O)(c1cccc(F)c1)c1ccc2c3c(oc2c1)C1CCN1CC3` (stereo not shown) [Example 616, 8-[(3-Fluorophenyl)sulfonyl]-1,4,5,10b-tetrahydro-2H-azeto[1,2-a][1]benzofuro[2,3-c]pyridine], less than 500 nM.
As for `CC1(C)CNC2(CCOC2)c2oc3cc([S+]([O-])c4cncc(Cl)c4)ccc3c21` (stereo not shown) [Example 455], the figure is greater than 1000 nM.
On to `O=S(=O)(c1ccc2oc3c(c2c1)CCNC3)c1cc(Cl)ccc1Cl` [Example 266, 6-[(2,5-dichlorophenyl)sulfonyl]-1,2,3,4-tetrahydro[1]benzofuro[2,3-c]pyridine], for which the Ki was less than 500 nM.
Turning to `CC1(C(F)F)NCCc2c1oc1cc(S(=O)(=O)c3cccc(F)c3F)ccc21` (single isomer, unassigned; enantiomer 1) [Example 471, 1-(Difluoromethyl)-7-[(2,3-difluorophenyl)sulfonyl]-1-methyl-1,2,3,4-tetrahydro[1]benzofuro[2,3-c]pyridine, enantiomer 1], the Ki was less than 500 nM.
For `O=S(=O)(c1cccc(OCc2ccncc2)c1)c1ccc2c(c1)OC1CNCCC21` (stereo not shown) [Example 561], the Ki was less than 500 nM.
Take `O=S(=O)(c1cc(F)cc(F)c1)c1ccc2c(c1)OC1CNCCC21` (stereo not shown) [Example 131]: the Ki was less than 500 nM.
As to `O=S(=O)(c1ccc(Cl)c(Cl)c1)c1cccc2c1OC1CNCCC21` (stereo not shown) [Example 186], the Ki is less than 500 nM.
The result for `O=S(=O)(Oc1ccc2c(c1)C1CCNCC1O2)c1cccc(Cl)c1` (stereo not shown) [Example 710] reads less than 500 nM; that for `COCCOc1cccc(S(=O)(=O)c2ccc3c(c2)OC2CNCCC32)c1` (stereo not shown) [Example 558], 500 to 1000 nM; that for `CC12CCN(C3CCC3)CC1Oc1ccc(OS(=O)(=O)Cc3ccccc3)cc12` (stereo not shown) [Example 805], greater than 1000 nM.
The result for `[O-][S+](c1cccc(C(F)(F)F)c1)c1ccc2c3c(oc2c1)C1(CCOCC1)NCC3` (stereo not shown) [Example 297] reads less than 500 nM.
With `CC(=O)N(C)CCC1NCCc2c1oc1cc(S(=O)(=O)c3cccc(F)c3)ccc21` (racemic) [Example 538, N-(2-{7-[(3-fluorophenyl)sulfonyl]-1,2,3,4-tetrahydro[1]benzofuro[2,3-c]pyridin-1-yl}ethyl)-N-methylacetamide], the Ki was less than 500 nM.
As for `O=S(=O)(c1ccc(C(F)(F)F)cc1)c1ccc2c(c1)OC1CNCCC21` (stereo not shown) [Example 151], the figure is 500 to 1000 nM; as for `O=S(=O)(c1ccc2c(c1)C1CCNCC1O2)c1ccc2ccccc2c1` (stereo not shown) [Example 175], less than 500 nM.
As for `CC1(CO)NCCc2c1oc1cc(S(=O)(=O)c3ccccc3)ccc21` (stereo not shown) [Example 525], the figure is less than 500 nM; as for `O=S(=O)(Nc1ccc2c(c1)C1CCNCC1O2)c1ccc(Cl)cc1` (stereo not shown) [Example 823], less than 500 nM; as for `O=S(=O)(c1ccc(OC(F)(F)F)cc1)c1ccc2c3c(oc2c1)CNCC3` [Example 227, 7-{[4-(trifluoromethoxy)phenyl]sulfo-nyl}-1,2,3,4-tetrahydro[1]benzofuro[2,3-c]pyridine], less than 500 nM.
As for `O=S(=O)(Oc1ccc2c(c1)C1CCNCC1O2)c1ccc2c(c1)OCCO2` (stereo not shown) [Example 729], the Ki is less than 500 nM.
